From patent US11434242B2, “Dopamine-b-hydroxylase inhibitors” (BIAL-PORTELA & Cª, S.A., priority 2017, dated 2022) come the findings set out here.

Structures are written as SMILES. Marks after values point to notes of the source that are not given here.

For this experiment, the target named is T1, Dopamine beta hydroxylase (Homo sapiens, UniProt P09172).
T1 construct: 125 μl of plasma; tissue Instituto Português do Sangue Transplantação; host or cells: human plasma from healthy donors
T1 sequence (P09172 40-617 limits assumed): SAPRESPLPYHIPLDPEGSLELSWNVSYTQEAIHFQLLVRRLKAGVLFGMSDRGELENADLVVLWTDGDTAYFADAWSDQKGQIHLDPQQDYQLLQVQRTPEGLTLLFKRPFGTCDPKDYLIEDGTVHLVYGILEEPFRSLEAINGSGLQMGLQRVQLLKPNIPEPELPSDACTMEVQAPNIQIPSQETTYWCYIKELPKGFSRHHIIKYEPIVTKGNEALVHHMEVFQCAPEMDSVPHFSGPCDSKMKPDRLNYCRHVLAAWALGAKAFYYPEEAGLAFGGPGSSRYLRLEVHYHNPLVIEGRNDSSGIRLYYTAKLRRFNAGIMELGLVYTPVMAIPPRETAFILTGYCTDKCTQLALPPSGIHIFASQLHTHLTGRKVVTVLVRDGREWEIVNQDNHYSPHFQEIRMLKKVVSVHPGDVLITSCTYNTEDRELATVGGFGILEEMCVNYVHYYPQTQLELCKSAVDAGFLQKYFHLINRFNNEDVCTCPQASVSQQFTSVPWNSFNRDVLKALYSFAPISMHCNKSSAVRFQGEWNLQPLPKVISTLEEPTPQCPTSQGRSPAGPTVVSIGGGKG
Put plainly: Dopamine beta hydroxylase activity in human plasma. Format: biochemical. The essentials:
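Octopamine production from tyramine over 45 min at 37° C, measured photometrically at 330 nm after SCX extraction and periodate oxidation against an octopamine standard curve, indicates plasma DβH activity. Compounds tested at final 10, 100 and 1000 nM in human plasma, pH 5.0 cofactor buffer, 10 min preincubation; results as % of control.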

As for `Fc1ccc(Br)c(F)c1[C@H]1Cc2c(CCc3cccnc3)[nH]c(=S)n2C1` [Example 214, (R)-6-(3-bromo-2,6-difluorophenyl)-1-(2-(pyridin-3-yl)ethyl)-2,5,6,7-tetrahydro-3H-pyrrolo[1,2-c]imidazole-3-thione], the “Plasma (0.01 μM), activity in % of control” value (inhibitor 0.01 μM) is recorded as 109.1 % of control. Further, the “Plasma (0.1 μM), activity in % of control” value (inhibitor 0.1 μM) is on record as 72.1 % of control.

Turning to `Cl.Fc1ccc(Cl)c(F)c1[C@@H]1Cc2c(CCc3cccnc3)[nH]c(=S)n2C1` [Example 215, (S)-6-(3-chloro-2,6-difluorophenyl)-1-(2-(pyridin-3-yl)ethyl)-2,5,6,7-tetrahydro-3H-pyrrolo[1,2-c]imidazole-3-thione Hydrochloride], where the note is “inhibitor 0.01 μM”, the “Plasma (0.01 μM), activity in % of control” value is reported as 74.3 % of control. Also, the “Plasma (0.1 μM), activity in % of control” value (inhibitor 0.1 μM) is given as 34.2 % of control.

Turning to `CCOCCCc1[nH]c(=S)n2c1C[C@H](c1c(F)c(F)cc(F)c1F)C2` [Example 216, (R)-1-(3-ethoxypropyl)-6-(2,3,5,6-tetrafluorophenyl)-2,5,6,7-tetrahydro-3H-pyrrolo[1,2-c]imidazole-3-thione], the “Plasma (0.01 μM), activity in % of control” value (inhibitor 0.01 μM) is recorded as 84.5 % of control. Besides, the “Plasma (0.1 μM), activity in % of control” value (inhibitor 0.1 μM) is 47.1 % of control.

For the compound `Cn1ccnc1CCc1[nH]c(=S)n2c1C[C@H](c1c(F)c(F)cc(F)c1F)C2` [Example 217, (R)-1-(2-(1-methyl-1H-imidazol-2-yl)ethyl)-6-(2,3,5,6-tetrafluorophenyl)-2,5,6,7-tetrahydro-3H-pyrrolo[1,2-c]imidazole-3-thione], the “Plasma (0.01 μM), activity in % of control” value (inhibitor 0.01 μM) was 99.8 % of control. For the same compound, for the setting “inhibitor 0.1 μM”, the “Plasma (0.1 μM), activity in % of control” value is 92.3 % of control.

For the compound `Fc1cc(F)c(F)c([C@H]2Cc3c(CCc4ccncc4)[nH]c(=S)n3C2)c1F` [Example 218, (R)-1-(2-(pyridin-4-yl)ethyl)-6-(2,3,5,6-tetrafluorophenyl)-2,5,6,7-tetrahydro-3H-pyrrolo[1,2-c]imidazole-3-thione], the “Plasma (0.01 μM), activity in % of control” value (inhibitor 0.01 μM) is given as 89.2 % of control. Further, the “Plasma (0.1 μM), activity in % of control” value (inhibitor 0.1 μM) is recorded as 69.1 % of control.

`O=C(NCc1[nH]c(=S)n2c1C[C@@H](c1c(F)ccc(Cl)c1F)C2)C1CC1` [Example 220, (S)—N-((6-(3-chloro-2,6-difluorophenyl)-3-thioxo-3,5,6,7-tetrahydro-2H-pyrrolo[1,2-c]imidazol-1-yl)methyl)cyclopropanecarboxamide]: where the note is “inhibitor 0.01 μM”, the “Plasma (0.01 μM), activity in % of control” value is on record as 76.5 % of control. Besides, under “inhibitor 0.1 μM”, the “Plasma (0.1 μM), activity in % of control” value is reported as 17.7 % of control.

In the case of `O=C(NCc1[nH]c(=S)n2c1C[C@@H](c1c(F)ccc(Cl)c1F)C2)C1CCCC1` [Example 221, (S)—N-((6-(3-chloro-2,6-difluorophenyl)-3-thioxo-2,5,6,7-tetrahydro-3H-pyrrolo[1,2-c]imidazol-1-yl)methyl)cyclopentanecarboxamide], the “Plasma (0.01 μM), activity in % of control” value (inhibitor 0.01 μM) was 79.3 % of control. For the same compound, where the note is “inhibitor 0.1 μM”, the “Plasma (0.1 μM), activity in % of control” value was 30.0 % of control.

Turning to `O=C(NCc1[nH]c(=S)n2c1C[C@@H](c1c(F)ccc(Cl)c1F)C2)C1CCOCC1` [Example 222, (S)—N-((6-(3-chloro-2,6-difluorophenyl)-3-thioxo-2,5,6,7-tetrahydro-3H-pyrrolo[1,2-c]imidazol-1-yl)methyl)tetrahydro-2H-pyran-4-carboxamide], the “Plasma (0.01 μM), activity in % of control” value (inhibitor 0.01 μM) was 73.6 % of control. Also, the “Plasma (0.1 μM), activity in % of control” value (inhibitor 0.1 μM) is listed as 12.9 % of control.

Regarding `O=C(NCc1[nH]c(=S)n2c1C[C@@H](c1c(F)ccc(Cl)c1F)C2)c1cccnc1` [Example 223, (S)—N-((6-(3-chloro-2,6-difluorophenyl)-3-thioxo-2,5,6,7-tetrahydro-3H-pyrrolo[1,2-c]imidazol-1-yl)methyl)nicotinamide], the “Plasma (0.01 μM), activity in % of control” value (inhibitor 0.01 μM) is 42.7 % of control. For the same compound, the “Plasma (0.1 μM), activity in % of control” value (inhibitor 0.1 μM) is given as 7.2 % of control.

Regarding `N#CN/C(N)=N/Cc1[nH]c(=S)n2c1C[C@@H](c1c(F)ccc(Br)c1F)C2` [Example 224, 2-{[(6S)-6-(3-bromo-2,6-difluorophenyl)-3-thioxo-2,5,6,7-tetrahydro-3H-pyrrolo[1,2-c]imidazol-1-yl]methyl}-1-cyanoguanidine], for the setting “inhibitor 0.01 μM”, the “Plasma (0.01 μM), activity in % of control” value was 22.6 % of control. Besides, under “inhibitor 0.1 μM”, the “Plasma (0.1 μM), activity in % of control” value is on record as 0.6 % of control.

In the case of `N#C/N=C(/NCc1[nH]c(=S)n2c1C[C@@H](c1c(F)ccc(Br)c1F)C2)N1CCCC1` [Example 225, (S,Z)—N-((6-(3-bromo-2,6-difluorophenyl)-3-thioxo-2,5,6,7-tetrahydro-3H-pyrrolo[1,2-c]imidazol-1-yl)methyl)-N′-cyanopyrrolidine-1-carboximidamide], the “Plasma (0.01 μM), activity in % of control” value (inhibitor 0.01 μM) is given as 65.3 % of control. For the same compound, under “inhibitor 0.1 μM”, the “Plasma (0.1 μM), activity in % of control” value is 12.5 % of control.

As for `CN(CCc1[nH]c(=S)n2c1C[C@@H](c1c(F)ccc(Cl)c1F)C2)C(=O)c1cccnc1` [Example 226, (S)—N-(2-(6-(3-chloro-2,6-difluorophenyl)-3-thioxo-2,5,6,7-tetrahydro-3H-pyrrolo[1,2-c]imidazol-1-yl)ethyl)-N-methylnicotinamide], the “Plasma (0.01 μM), activity in % of control” value (inhibitor 0.01 μM) is given as 100.8 % of control. Further, the “Plasma (0.1 μM), activity in % of control” value (inhibitor 0.1 μM) is reported as 47.4 % of control.

For the compound `CN(CCc1[nH]c(=S)n2c1C[C@@H](c1c(F)ccc(Cl)c1F)C2)C(=O)N1CCCC1` [Example 227, (S)—N-(2-(6-(3-chloro-2,6-difluorophenyl)-3-thioxo-2,5,6,7-tetrahydro-3H-pyrrolo[1,2-c]imidazol-1-yl)ethyl)-N-methylpyrrolidine-1-carboxamide], the “Plasma (0.01 μM), activity in % of control” value (inhibitor 0.01 μM) was 86.8 % of control. Also, where the note is “inhibitor 0.1 μM”, the “Plasma (0.1 μM), activity in % of control” value is recorded as 54.9 % of control.

In the case of `Cc1noc(Cc2[nH]c(=S)n3c2C[C@@H](c2c(F)ccc(Cl)c2F)C3)n1` [Example 228, (S)-6-(3-chloro-2,6-difluorophenyl)-1-((3-methyl-1,2,4-oxadiazol-5-yl)methyl)-6,7-dihydro-2H-pyrrolo[1,2-c]imidazole-3(5H)-thione], for the setting “inhibitor 0.01 μM”, the “Plasma (0.01 μM), activity in % of control” value is recorded as 90.2 % of control. In addition, under “inhibitor 0.1 μM”, the “Plasma (0.1 μM), activity in % of control” value is listed as 56.0 % of control.

Take `Cn1c(CC(=O)O)c2n(c1=S)C[C@@H](c1c(F)c(F)cc(F)c1F)C2` [Example 229, (R)-2-(2-methyl-6-(2,3,5,6-tetrafluorophenyl)-3-thioxo-3,5,6,7-tetrahydro-2H-pyrrolo[1,2-c]imidazol-1-yl)acetic Acid]: the “Plasma (0.01 μM), activity in % of control” value (inhibitor 0.01 μM) is 84.3 % of control. Besides, the “Plasma (0.1 μM), activity in % of control” value (inhibitor 0.1 μM) was 38.3 % of control.

In the case of `Cn1c(CC(=O)O)c2n(c1=S)C[C@H](c1cc(Cl)ccc1F)C2` [Example 230, (S)-2-(6-(5-chloro-2-fluorophenyl)-2-methyl-3-thioxo-2,5,6,7-tetrahydro-3H-pyrrolo[1,2-c]imidazol-1-yl)acetic acid], where the note is “inhibitor 0.01 μM”, the “Plasma (0.01 μM), activity in % of control” value is 82.0 % of control. In addition, the “Plasma (0.1 μM), activity in % of control” value (inhibitor 0.1 μM) was 41.6 % of control.

Turning to `Cn1c(CC(=O)N2CCOCC2)c2n(c1=S)C[C@H](c1c(F)ccc(Br)c1F)C2` [Example 233, (S)-2-(6-(3-bromo-2,6-difluorophenyl)-2-methyl-3-thioxo-2,5,6,7-tetrahydro-3H-pyrrolo[1,2-c]imidazol-1-yl)-1-morpholinoethan-1-one], the “Plasma (0.01 μM), activity in % of control” value (inhibitor 0.01 μM) is reported as 83.8 % of control. Moreover, the “Plasma (0.01 μM), activity in % of control, re-test (asterisked)” value (inhibitor 0.01 μM, re-tested under the same experimental conditions, asterisked data believed to be correct) is recorded as 59.3* % of control. Moreover, the “Plasma (0.1 μM), activity in % of control” value (inhibitor 0.1 μM) is reported as 66.8 % of control. In addition, the “Plasma (0.1 μM), activity in % of control, re-test (asterisked)” value (inhibitor 0.1 μM, re-tested under the same experimental conditions, asterisked data believed to be correct) is recorded as 9.7* % of control.

`Cn1c(C2(C(=O)N[C@@H]3CCOC3)CC2)c2n(c1=S)C[C@H](c1c(F)ccc(Br)c1F)C2` [Example 234, 1-((S)-6-(3-bromo-2,6-difluorophenyl)-2-methyl-3-thioxo-2,5,6,7-tetrahydro-3H-pyrrolo[1,2-c]imidazol-1-yl)-N—((R)-tetrahydrofuran-3-yl)cyclopropane-1-carboxamide]: the “Plasma (0.01 μM), activity in % of control” value (inhibitor 0.01 μM) is given as 43.4 % of control. Further, the “Plasma (0.1 μM), activity in % of control” value (inhibitor 0.1 μM) was 12.2 % of control.

Turning to `Cn1c(CC(=O)N2CCS(=O)(=O)CC2)c2n(c1=S)C[C@H](c1c(F)ccc(Br)c1F)C2` [Example 235, (S)-2-(6-(3-bromo-2,6-difluorophenyl)-2-methyl-3-thioxo-2,5,6,7-tetrahydro-3H-pyrrolo[1,2-c]imidazol-1-yl)-1-(1,1-dioxidothiomorpholino)ethan-1-one], the “Plasma (0.01 μM), activity in % of control” value (inhibitor 0.01 μM) is 11.4 % of control. Where the note is “inhibitor 0.1 μM”, the “Plasma (0.1 μM), activity in % of control” value was 1.2 % of control.

Turning to `CC(C)NC(=O)Cc1c2n(c(=S)n1C)C[C@H](c1c(F)ccc(Cl)c1F)C2` [Example 236, (S)-2-(6-(3-chloro-2,6-difluorophenyl)-2-methyl-3-thioxo-2,5,6,7-tetrahydro-3H-pyrrolo[1,2-c]imidazol-1-yl)-N-isopropylacetamide], for the setting “inhibitor 0.01 μM”, the “Plasma (0.01 μM), activity in % of control” value is 104.2 % of control. Moreover, the “Plasma (0.1 μM), activity in % of control” value (inhibitor 0.1 μM) is recorded as 51.0 % of control.
